From patent US20170114030A1, “COMPOSITION WITH HIGH CONTENT OF CYCLIC DIPEPTIDE” (SUNTORY HOLDINGS LIMITED, priority 2014, published 2017)

Test system: plasma active GLP-1
Assay: In vivo plasma active GLP-1 level-increasing action after oral administration
Parameters: species or system mice
Settings: 10 mg/kg orally; for Plasma active GLP-1 level (relative value to control group as 100), Average value: male C57/BL6J mice, blood after 30 minutes, 0.5% CMC-Na group = 100; for Significant difference (p < 0.05) vs control group, plasma active GLP-1 level: mice, 30 minutes, Student's t-test
Description: In the Test Examples below, data were represented as average value±standard error. In Test Examples 1, 2, and 3, a Student's t-test was used for a statistical test, and in other Test Examples, one-way ANOVA was carried out for dispersion analysis followed by a multiple comparison test by using a Dunnet's test. […] All of these analyses were carried out by using an SPSS for Windows release 17.0 (manufactured by SPSS Inc.).
Among the cyclic dipeptides, cyclic dipeptides for which an in vitro GLP-1 secretion-accelerating action was found and highly lipid-soluble cyclic dipeptides were used in the following experiment. Seven-week-old male C57/BL6J mice were purchased from CLEA Japan, Inc. for use, and they were subjected to an experiment after 1 week of a habituation period. Each animal was grown in an animal room with an air conditioning system (temperature: 23.5±1.0° C., humidity: 55±10 RH %, air ventilation: 12 to 15 times/hour, illumination: from 7:00 to 19:00/day).
After the habituation period, the mice were subjected to 5.5 hours of food deprivation and 2 hours of water deprivation. Thereafter, a cyclic dipeptide dissolved or suspended in a 0.5% CMC-Na aqueous solution in 10 mg/kg was orally administered to each mouse forcibly. After 30 minutes, the blood was collected from the abdominal vena cava under anesthesia, and 1 μL of heparin sodium and 1 μL of 10 mM Sitagliptin phosphate were added to each collected blood, which was then subjected to centrifugation at 8000 rpm for 10 minutes to recover the plasma, and the plasma active GLP-1 level was measured by using the ELISA kit. In the analysis, the active GLP-1 level for a group administered with 0.5% CMC-Na aqueous solution was defined as 100, and relative values thereto were used.
In each Table, cyclic dipeptides for which an in vivo plasma active GLP-1 level-increasing action was found and was not found are listed.

O=C1CNC(=O)C(Cc2ccccc2)N1 (stereo not drawn) [compound 8]
Plasma active GLP-1 level (relative value to control group as 100), Average value (Experiment 4): 85 | Significant difference (p < 0.05) vs control group, plasma active GLP-1 level (Experiment 4): No

CC(C)C1NC(=O)C(C(C)C)NC1=O (stereo not drawn) [compound 11]
Plasma active GLP-1 level (relative value to control group as 100), Average value (Experiment 4): 100 | Significant difference (p < 0.05) vs control group, plasma active GLP-1 level (Experiment 4): No

CCC(C)C1NC(=O)C(C(C)CC)NC1=O (stereo not drawn) [compound 14]
Plasma active GLP-1 level (relative value to control group as 100), Average value (Experiment 4): 105 | Significant difference (p < 0.05) vs control group, plasma active GLP-1 level (Experiment 4): No

CC(C)CC1NC(=O)C(CC(C)C)NC1=O (stereo not drawn) [compound 15]
Plasma active GLP-1 level (relative value to control group as 100), Average value (Experiment 4): 95 | Significant difference (p < 0.05) vs control group, plasma active GLP-1 level (Experiment 4): No

CC(C)CC1NC(=O)C(Cc2ccccc2)NC1=O (stereo not drawn) [compound 16]
Plasma active GLP-1 level (relative value to control group as 100), Average value (Experiment 4): 105 | Significant difference (p < 0.05) vs control group, plasma active GLP-1 level (Experiment 4): No

O=C1NC(Cc2ccccc2)C(=O)NC1Cc1ccccc1 (stereo not drawn) [compound 17]
Plasma active GLP-1 level (relative value to control group as 100), Average value (Experiment 3): 203 | Significant difference (p < 0.05) vs control group, plasma active GLP-1 level (Experiment 3): Yes

O=C1NC(Cc2c[nH]c3ccccc23)C(=O)NC1Cc1ccc(O)cc1 (stereo not drawn) [compound 22]
Plasma active GLP-1 level (relative value to control group as 100), Average value (Experiment 3): 203 | Significant difference (p < 0.05) vs control group, plasma active GLP-1 level (Experiment 3): Yes

O=C1NC(Cc2ccc(O)cc2)C(=O)NC1CO (stereo not drawn) [compound 29]
Plasma active GLP-1 level (relative value to control group as 100), Average value (Experiment 4): 95 | Significant difference (p < 0.05) vs control group, plasma active GLP-1 level (Experiment 4): No

O=C1NC(Cc2ccc(O)cc2)C(=O)N2CCCC12 (stereo not drawn) [compound 30]
Plasma active GLP-1 level (relative value to control group as 100), Average value (Experiment 4): 95 | Significant difference (p < 0.05) vs control group, plasma active GLP-1 level (Experiment 4): No

O=C(O)CC1NC(=O)C(Cc2ccccc2)NC1=O (stereo not drawn) [compound 33]
Plasma active GLP-1 level (relative value to control group as 100), Average value (Experiment 4): 90 | Significant difference (p < 0.05) vs control group, plasma active GLP-1 level (Experiment 4): No

O=C1NC(Cc2c[nH]cn2)C(=O)NC1Cc1ccccc1 (stereo not drawn) [compound 38]
Plasma active GLP-1 level (relative value to control group as 100), Average value (Experiment 3): 264 | Significant difference (p < 0.05) vs control group, plasma active GLP-1 level (Experiment 3): Yes

CC(C)CC1NC(=O)C(Cc2c[nH]c3ccccc23)NC1=O (stereo not drawn) [compound 39]
Plasma active GLP-1 level (relative value to control group as 100), Average value (Experiment 3): 229 | Significant difference (p < 0.05) vs control group, plasma active GLP-1 level (Experiment 3): Yes

CC(C)CC1NC(=O)C(C)NC1=O (stereo not drawn) [compound 44]
Plasma active GLP-1 level (relative value to control group as 100), Average value (Experiment 3): 255 | Significant difference (p < 0.05) vs control group, plasma active GLP-1 level (Experiment 3): Yes

O=C1NC(Cc2ccc(O)cc2)C(=O)NC1Cc1ccc(O)cc1 (stereo not drawn) [compound 49]
Plasma active GLP-1 level (relative value to control group as 100), Average value (Experiment 5): 100 | Significant difference (p < 0.05) vs control group, plasma active GLP-1 level (Experiment 5): No

CC(C)C1NC(=O)C(Cc2c[nH]c3ccccc23)NC1=O (stereo not drawn) [compound 61]
Plasma active GLP-1 level (relative value to control group as 100), Average value (Experiment 3): 117 | Significant difference (p < 0.05) vs control group, plasma active GLP-1 level (Experiment 3): No

CSCCC1NC(=O)C(CC(C)C)NC1=O (stereo not drawn) [compound 72]
Plasma active GLP-1 level (relative value to control group as 100), Average value (Experiment 6): 90 | Significant difference (p < 0.05) vs control group, plasma active GLP-1 level (Experiment 6): No

O=C1NC(Cc2c[nH]c3ccccc23)C(=O)NC1Cc1c[nH]c2ccccc12 (stereo not drawn) [compound 75]
Plasma active GLP-1 level (relative value to control group as 100), Average value (Experiment 3): 229 | Significant difference (p < 0.05) vs control group, plasma active GLP-1 level (Experiment 3): Yes

CC(O)C1NC(=O)C(Cc2c[nH]c3ccccc23)NC1=O (stereo not drawn) [compound 79]
Plasma active GLP-1 level (relative value to control group as 100), Average value (Experiment 6): 100 | Significant difference (p < 0.05) vs control group, plasma active GLP-1 level (Experiment 6): No

NC(=O)CCC1NC(=O)C(Cc2c[nH]c3ccccc23)NC1=O (stereo not drawn) [compound 82]
Plasma active GLP-1 level (relative value to control group as 100), Average value (Experiment 6): 90 | Significant difference (p < 0.05) vs control group, plasma active GLP-1 level (Experiment 6): No

O=C(O)CCC1NC(=O)C(Cc2ccc(O)cc2)NC1=O (stereo not drawn) [compound 87]
Plasma active GLP-1 level (relative value to control group as 100), Average value (Experiment 7): 141 | Significant difference (p < 0.05) vs control group, plasma active GLP-1 level (Experiment 7): No

CC(C)C1NC(=O)C(Cc2ccc(O)cc2)NC1=O (stereo not drawn) [compound 88]
Plasma active GLP-1 level (relative value to control group as 100), Average value (Experiment 7): 385 | Significant difference (p < 0.05) vs control group, plasma active GLP-1 level (Experiment 7): Yes

CC(O)C1NC(=O)C(Cc2ccc(O)cc2)NC1=O (stereo not drawn) [compound 90]
Plasma active GLP-1 level (relative value to control group as 100), Average value (Experiment 7): 466 | Significant difference (p < 0.05) vs control group, plasma active GLP-1 level (Experiment 7): Yes

O=C(O)CC1NC(=O)C(Cc2ccc(O)cc2)NC1=O (stereo not drawn) [compound 91]
Plasma active GLP-1 level (relative value to control group as 100), Average value (Experiment 7): 181 | Significant difference (p < 0.05) vs control group, plasma active GLP-1 level (Experiment 7): No

NC(=O)CC1NC(=O)C(Cc2ccc(O)cc2)NC1=O (stereo not drawn) [compound 92]
Plasma active GLP-1 level (relative value to control group as 100), Average value (Experiment 7): 181 | Significant difference (p < 0.05) vs control group, plasma active GLP-1 level (Experiment 7): No

NC(=O)CCC1NC(=O)C(Cc2ccc(O)cc2)NC1=O (stereo not drawn) [compound 93]
Plasma active GLP-1 level (relative value to control group as 100), Average value (Experiment 7): 344 | Significant difference (p < 0.05) vs control group, plasma active GLP-1 level (Experiment 7): Yes

CC(C)CC1NC(=O)C(Cc2c[nH]cn2)NC1=O (stereo not drawn) [compound 103]
Plasma active GLP-1 level (relative value to control group as 100), Average value (Experiment 8): 94 | Significant difference (p < 0.05) vs control group, plasma active GLP-1 level (Experiment 8): No

CSCCC1NC(=O)C(C)NC1=O (stereo not drawn) [compound 125]
Plasma active GLP-1 level (relative value to control group as 100), Average value (Experiment 9): 133

CSCCC1NC(=O)CNC1=O (stereo not drawn) [compound 127]
Plasma active GLP-1 level (relative value to control group as 100), Average value (Experiment 9): 124 | Significant difference (p < 0.05) vs control group, plasma active GLP-1 level (Experiment 9): Yes

CCC(C)C1NC(=O)C(CO)NC1=O (stereo not drawn) [compound 133]
Plasma active GLP-1 level (relative value to control group as 100), Average value (Experiment 9): 133 | Significant difference (p < 0.05) vs control group, plasma active GLP-1 level (Experiment 9): Yes

CC(C)C1NC(=O)C(CC(N)=O)NC1=O (stereo not drawn) [compound 141]
Plasma active GLP-1 level (relative value to control group as 100), Average value (Experiment 10): 191 | Significant difference (p < 0.05) vs control group, plasma active GLP-1 level (Experiment 10): Yes

CCC(C)C1NC(=O)C(Cc2cnc[nH]2)NC1=O (stereo not drawn) [compound 148]
Plasma active GLP-1 level (relative value to control group as 100), Average value (Experiment 10): 259 | Significant difference (p < 0.05) vs control group, plasma active GLP-1 level (Experiment 10): Yes

CCC(C)C1NC(=O)C(CCCCN)NC1=O (stereo not drawn) [compound 150]
Plasma active GLP-1 level (relative value to control group as 100), Average value (Experiment 10): 282 | Significant difference (p < 0.05) vs control group, plasma active GLP-1 level (Experiment 10): Yes

CC(C)C1NC(=O)CNC1=O (stereo not drawn) [compound 155]
Plasma active GLP-1 level (relative value to control group as 100), Average value (Experiment 10): 55 | Significant difference (p < 0.05) vs control group, plasma active GLP-1 level (Experiment 10): No

CCC(C)C1NC(=O)C(C(C)O)NC1=O (stereo not drawn) [compound 161]
Plasma active GLP-1 level (relative value to control group as 100), Average value (Experiment 10): 282 | Significant difference (p < 0.05) vs control group, plasma active GLP-1 level (Experiment 10): Yes

CCC(C)C1NC(=O)C(CC(=O)O)NC1=O (stereo not drawn) [compound 162]
Plasma active GLP-1 level (relative value to control group as 100), Average value (Experiment 10): 259 | Significant difference (p < 0.05) vs control group, plasma active GLP-1 level (Experiment 10): Yes

CCC(C)C1NC(=O)C(CC(N)=O)NC1=O (stereo not drawn) [compound 163]
Plasma active GLP-1 level (relative value to control group as 100), Average value (Experiment 10): 327 | Significant difference (p < 0.05) vs control group, plasma active GLP-1 level (Experiment 10): Yes

CSCCC1NC(=O)C(C(C)O)NC1=O (stereo not drawn) [compound 169]
Plasma active GLP-1 level (relative value to control group as 100), Average value (Experiment 10): 282 | Significant difference (p < 0.05) vs control group, plasma active GLP-1 level (Experiment 10): Yes

O=C1NC(CS)C(=O)NC1CO (stereo not drawn) [compound 180]
Plasma active GLP-1 level (relative value to control group as 100), Average value (Experiment 10): 259 | Significant difference (p < 0.05) vs control group, plasma active GLP-1 level (Experiment 10): Yes
